Results from paper PMC2797259 (The Journal of Biological Chemistry, 2009).

Target: T1, BacA (Bacillus subtilis, UniProt P39638)
T1 sequence (P39638 1-204): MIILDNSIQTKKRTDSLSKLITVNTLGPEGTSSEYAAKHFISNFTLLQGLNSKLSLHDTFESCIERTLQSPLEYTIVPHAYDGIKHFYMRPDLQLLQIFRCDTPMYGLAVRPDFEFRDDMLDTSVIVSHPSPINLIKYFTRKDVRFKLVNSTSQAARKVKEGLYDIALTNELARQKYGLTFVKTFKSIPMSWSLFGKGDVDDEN
Assay: HPLC, UV, 1H NMR and ESI-MS of products
Assay type: biochemical
Settings: decarboxylation; Tris-HCl pH 8.1

## O=C(O)C(=O)CC1(C(=O)O)C=CC(O)C=C1 (stereo not shown) [prephenate]
  HPLC, UV, 1H NMR and ESI-MS of products: prephenate is a substrate for BacA and not for BacB
